Data reported in ChEMBL document CHEMBL1201862, “PubChem BioAssay data set” (2004).
Activity calls are given as the source filed them.

Columns and labels:
[1] = Luminescence Cell-Based Dose Response HTS to Identify Activators of Luciferase Translation or Activity in H4 […] Cells. [Related pubchem assays: 1829 (Project Summary), 1814 (Primary HTS)]; format: functional
[2] = Luminescence Cell-Based Dose Confirmation HTS to Identify Activators of 5'UTR Stem-Loop Driven Alpha-Synuclein mRNA Translation in H4 Neuroglioblastoma Cells. [Related pubchem assays: 1829 (Project Summary), 1814 (Primary HTS)]; format: functional
[3] = molecular target: Heat shock protein HSP 90-alpha (Homo sapiens, UniProt P07900); format: functional, organism-based
H4 = test: Luminescence Cell-Based Dose Response HTS to Identify Activators of 5'UTR Stem-Loop Driven Prion Protein mRNA Translation in H4 Neuroglioblastoma Cells. [Related pubchem assays: 1829 (Project Summary), 1814 (Primary HTS)]; format: functional; details: Homo sapiens
Nonstructural protein 1 = Nonstructural protein 1 (Influenza A virus, UniProt Q194T2); format: functional, Influenza A virus (A/California/07/2009(H1N1))
Sequence of Nonstructural protein 1 (Q194T2 whole entry): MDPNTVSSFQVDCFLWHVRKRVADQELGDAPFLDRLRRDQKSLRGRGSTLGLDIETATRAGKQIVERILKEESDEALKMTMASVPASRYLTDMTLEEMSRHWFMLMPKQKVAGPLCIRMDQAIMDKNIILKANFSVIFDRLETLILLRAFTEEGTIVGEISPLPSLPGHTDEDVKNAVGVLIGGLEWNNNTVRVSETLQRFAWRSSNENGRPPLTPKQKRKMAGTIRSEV

[4] = molecular target: T1, Microphthalmia-associated transcription factor (Homo sapiens, UniProt O75030); test: TRPM1 promoter luciferase signal decrease, dose response, MITF inhibitor project, cell-based, SK-MEL-5, cherry-picked, set 3 (AID 493073); format: functional
T1 sequence (O75030 whole entry): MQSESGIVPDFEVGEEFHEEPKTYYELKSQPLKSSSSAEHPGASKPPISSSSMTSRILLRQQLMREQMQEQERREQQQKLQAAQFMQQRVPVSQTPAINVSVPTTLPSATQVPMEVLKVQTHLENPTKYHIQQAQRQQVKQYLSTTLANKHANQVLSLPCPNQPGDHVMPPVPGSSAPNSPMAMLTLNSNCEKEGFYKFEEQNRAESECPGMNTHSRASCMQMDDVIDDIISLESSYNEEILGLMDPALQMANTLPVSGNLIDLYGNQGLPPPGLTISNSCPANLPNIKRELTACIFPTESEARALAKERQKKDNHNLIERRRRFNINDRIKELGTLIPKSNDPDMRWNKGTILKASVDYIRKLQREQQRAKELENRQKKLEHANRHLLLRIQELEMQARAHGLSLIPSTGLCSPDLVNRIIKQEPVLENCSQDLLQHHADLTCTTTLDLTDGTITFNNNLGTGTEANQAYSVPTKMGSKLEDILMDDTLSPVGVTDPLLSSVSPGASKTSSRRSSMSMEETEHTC

INS1 = test: beta cell apoptosis inhibitors, cytokine rescue, dose response, luminescence, retest (AID 449756); format: functional, cell-based; details: Rattus norvegicus;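 note: cell death triggered by IL-1 beta plus TNF-alpha plus IFN-gamma mixture; protective hits raise ATP signal compared with cytokine alone wells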
[5] = molecular target: T2, Replicative DNA helicase DnaB (Mycobacterium tuberculosis, UniProt P9WMR3); test: DnaB intein splicing inhibitors, dose response, biochemical, cell-free fluorescence (AID 449749); format: functional
T2 sequence (P9WMR3 whole entry): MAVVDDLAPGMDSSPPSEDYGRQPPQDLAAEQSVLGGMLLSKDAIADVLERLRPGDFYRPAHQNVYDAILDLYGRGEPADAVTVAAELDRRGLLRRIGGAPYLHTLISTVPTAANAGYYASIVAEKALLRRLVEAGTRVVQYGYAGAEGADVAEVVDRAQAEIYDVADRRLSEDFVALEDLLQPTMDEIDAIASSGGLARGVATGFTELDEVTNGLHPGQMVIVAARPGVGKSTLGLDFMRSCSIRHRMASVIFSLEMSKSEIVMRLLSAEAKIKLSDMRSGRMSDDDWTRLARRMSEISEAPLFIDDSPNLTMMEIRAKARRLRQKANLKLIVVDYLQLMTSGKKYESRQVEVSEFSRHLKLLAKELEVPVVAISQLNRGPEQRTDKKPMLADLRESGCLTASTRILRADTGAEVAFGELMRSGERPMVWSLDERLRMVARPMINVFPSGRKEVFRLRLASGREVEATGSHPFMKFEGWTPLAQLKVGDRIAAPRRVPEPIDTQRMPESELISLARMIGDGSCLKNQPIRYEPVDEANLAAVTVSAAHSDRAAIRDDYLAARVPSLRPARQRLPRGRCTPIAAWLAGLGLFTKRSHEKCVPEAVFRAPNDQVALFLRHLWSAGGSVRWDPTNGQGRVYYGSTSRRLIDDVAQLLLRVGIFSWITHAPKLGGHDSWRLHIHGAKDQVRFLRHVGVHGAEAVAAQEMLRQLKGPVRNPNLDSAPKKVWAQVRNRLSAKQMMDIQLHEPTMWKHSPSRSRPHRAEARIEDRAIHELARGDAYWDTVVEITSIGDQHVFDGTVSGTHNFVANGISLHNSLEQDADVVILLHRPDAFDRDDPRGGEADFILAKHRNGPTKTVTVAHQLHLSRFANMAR

Protein RecA = molecular target: T3, Protein RecA (Mycobacterium tuberculosis, UniProt P9WHJ3); test: Fluorescence Cell-Free Homogeneous Dose Retest to Identify Inhibitors of RecA-Intein Splicing Activity. [Related pubchem assays (depositor defined):AID2097, AID2223, AID489010, AID492950]; format: functional
T3 sequence (P9WHJ3 whole entry): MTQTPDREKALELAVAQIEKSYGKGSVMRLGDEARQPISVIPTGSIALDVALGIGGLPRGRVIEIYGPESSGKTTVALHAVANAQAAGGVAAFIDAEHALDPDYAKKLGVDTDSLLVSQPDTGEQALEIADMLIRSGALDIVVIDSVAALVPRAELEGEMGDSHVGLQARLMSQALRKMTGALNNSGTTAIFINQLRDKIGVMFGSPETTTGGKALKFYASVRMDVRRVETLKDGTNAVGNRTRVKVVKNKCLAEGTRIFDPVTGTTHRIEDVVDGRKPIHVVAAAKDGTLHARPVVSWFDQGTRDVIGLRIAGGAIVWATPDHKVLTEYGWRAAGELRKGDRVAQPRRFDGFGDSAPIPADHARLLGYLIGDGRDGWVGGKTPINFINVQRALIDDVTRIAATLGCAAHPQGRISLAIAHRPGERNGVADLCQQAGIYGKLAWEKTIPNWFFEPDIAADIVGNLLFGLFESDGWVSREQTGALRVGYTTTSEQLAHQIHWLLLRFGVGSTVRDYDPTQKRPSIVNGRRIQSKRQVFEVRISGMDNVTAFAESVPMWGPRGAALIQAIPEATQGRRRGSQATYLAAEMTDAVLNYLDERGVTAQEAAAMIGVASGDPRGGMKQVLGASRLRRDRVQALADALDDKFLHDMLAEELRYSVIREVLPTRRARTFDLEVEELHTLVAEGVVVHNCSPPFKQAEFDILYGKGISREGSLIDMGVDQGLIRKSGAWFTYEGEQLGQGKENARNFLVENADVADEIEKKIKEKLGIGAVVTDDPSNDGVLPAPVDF

[6] = molecular target: T4, Heat shock factor protein 1 (Mus musculus, UniProt P38532); test: HSF1 potentiators in luciferase reporter cells, confirmation, cell-based, NIH3T3, luminescence, dose retest (AID 435004); format: functional;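 note: stress induced by proteasome inhibitor MG132 added 30 min after compound; luciferase reporter driven by HSF1 response element in NIH3T3 cells; actives raise luminescence as potentiators of the MG132 stress response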
T4 sequence (P38532 whole entry): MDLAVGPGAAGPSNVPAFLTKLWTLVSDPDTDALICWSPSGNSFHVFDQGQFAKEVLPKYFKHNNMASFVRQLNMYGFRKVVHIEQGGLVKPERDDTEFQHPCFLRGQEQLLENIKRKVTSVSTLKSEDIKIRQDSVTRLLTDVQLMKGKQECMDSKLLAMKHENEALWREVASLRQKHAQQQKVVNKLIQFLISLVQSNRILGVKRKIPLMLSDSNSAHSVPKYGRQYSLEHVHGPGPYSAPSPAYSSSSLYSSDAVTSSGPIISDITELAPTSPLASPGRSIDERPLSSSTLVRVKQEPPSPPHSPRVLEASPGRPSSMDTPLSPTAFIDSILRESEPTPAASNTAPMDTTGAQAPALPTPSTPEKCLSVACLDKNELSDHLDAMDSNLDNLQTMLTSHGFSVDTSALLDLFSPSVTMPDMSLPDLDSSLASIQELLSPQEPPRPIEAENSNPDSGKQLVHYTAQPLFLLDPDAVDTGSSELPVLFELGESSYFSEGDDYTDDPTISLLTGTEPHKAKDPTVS

[7] = human group III sPLA2 inhibitors, dose response, biochemical, QFRET, IC50 (AID 743457);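 note: green fluorescence rise as the enzyme cleaves BODIPY PC-A2 in liposomes; potency for inhibition of the enzyme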
Estrogen receptor beta = Estrogen receptor beta (Homo sapiens, UniProt Q92731);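 note: recombinant ER-beta bound to coactivator SRC1 peptide in presence of estradiol agonist; inhibitors block coactivator peptide binding and lower the FRET signal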
Sequence of Estrogen receptor beta (Q92731 whole entry): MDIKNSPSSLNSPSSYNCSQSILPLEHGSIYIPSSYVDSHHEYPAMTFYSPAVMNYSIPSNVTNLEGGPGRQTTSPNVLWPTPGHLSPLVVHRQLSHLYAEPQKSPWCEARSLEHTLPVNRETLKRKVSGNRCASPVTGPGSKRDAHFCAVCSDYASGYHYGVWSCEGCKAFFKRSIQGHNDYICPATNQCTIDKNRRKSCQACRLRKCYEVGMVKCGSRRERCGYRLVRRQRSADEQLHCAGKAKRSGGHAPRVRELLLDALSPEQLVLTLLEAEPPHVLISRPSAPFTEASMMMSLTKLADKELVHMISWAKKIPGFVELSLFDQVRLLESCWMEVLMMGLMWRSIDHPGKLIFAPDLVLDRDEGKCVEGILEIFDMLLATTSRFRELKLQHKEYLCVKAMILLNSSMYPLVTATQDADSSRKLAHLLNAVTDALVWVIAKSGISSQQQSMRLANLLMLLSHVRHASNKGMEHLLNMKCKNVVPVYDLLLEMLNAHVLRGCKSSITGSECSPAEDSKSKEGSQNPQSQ

Large T antigen = Large T antigen (Simian virus 40, UniProt P03070); format: functional, Betapolyomavirus macacae;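 note: Confirmatory-stage PubChem screen for compounds that inhibit SV40 T antigen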
Sequence of Large T antigen (P03070 whole entry): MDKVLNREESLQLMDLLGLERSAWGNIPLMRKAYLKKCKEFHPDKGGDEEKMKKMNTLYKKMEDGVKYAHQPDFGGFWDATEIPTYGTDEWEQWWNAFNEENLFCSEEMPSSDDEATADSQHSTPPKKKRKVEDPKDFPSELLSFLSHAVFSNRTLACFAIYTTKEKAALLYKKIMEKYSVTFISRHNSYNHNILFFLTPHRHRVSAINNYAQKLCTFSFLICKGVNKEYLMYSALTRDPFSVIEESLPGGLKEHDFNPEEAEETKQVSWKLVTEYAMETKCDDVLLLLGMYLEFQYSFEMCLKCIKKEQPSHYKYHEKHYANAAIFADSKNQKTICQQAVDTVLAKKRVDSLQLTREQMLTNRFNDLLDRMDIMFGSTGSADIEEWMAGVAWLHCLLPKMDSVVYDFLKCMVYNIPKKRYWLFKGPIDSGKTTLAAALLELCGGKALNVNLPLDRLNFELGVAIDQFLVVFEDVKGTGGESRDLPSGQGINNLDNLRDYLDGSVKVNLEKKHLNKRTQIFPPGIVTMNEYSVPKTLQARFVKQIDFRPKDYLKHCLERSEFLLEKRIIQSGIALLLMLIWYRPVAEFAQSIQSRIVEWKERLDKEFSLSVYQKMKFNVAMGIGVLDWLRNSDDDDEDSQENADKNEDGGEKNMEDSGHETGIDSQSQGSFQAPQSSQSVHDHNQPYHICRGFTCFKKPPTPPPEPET

[8] = intracellular Trypanosoma cruzi inhibitors in host cells – cell-based, plate reader, cherry-pick samples, set 3, dose response (AID 651818); format: functional;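 note: compounds incubated with infected cells for about four days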
[9] = Luminescence Cell-Based Dose Retest to Confirm Inhibitors of Cancer Stem Cells. [Related pubchem assays (depositor defined):AID2717, AID2721]; format: functional; details: Homo sapiens
[10] = microbe, parasite or virus in culture; format: functional; details: Mycobacterium tuberculosis
Paired box protein Pax-8 = Paired box protein Pax-8 (Homo sapiens, UniProt Q06710); test: inhibitors of PAX8-driven TPO luciferase reporter, dose response, RMG-I cells, cherry-pick (AID 687027); format: functional, cell-based;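 note: luciferase reporter driven by Pax8 target thyroperoxidase promoter measured by SteadyGlo luminescence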
Sequence of Paired box protein Pax-8 (Q06710 whole entry): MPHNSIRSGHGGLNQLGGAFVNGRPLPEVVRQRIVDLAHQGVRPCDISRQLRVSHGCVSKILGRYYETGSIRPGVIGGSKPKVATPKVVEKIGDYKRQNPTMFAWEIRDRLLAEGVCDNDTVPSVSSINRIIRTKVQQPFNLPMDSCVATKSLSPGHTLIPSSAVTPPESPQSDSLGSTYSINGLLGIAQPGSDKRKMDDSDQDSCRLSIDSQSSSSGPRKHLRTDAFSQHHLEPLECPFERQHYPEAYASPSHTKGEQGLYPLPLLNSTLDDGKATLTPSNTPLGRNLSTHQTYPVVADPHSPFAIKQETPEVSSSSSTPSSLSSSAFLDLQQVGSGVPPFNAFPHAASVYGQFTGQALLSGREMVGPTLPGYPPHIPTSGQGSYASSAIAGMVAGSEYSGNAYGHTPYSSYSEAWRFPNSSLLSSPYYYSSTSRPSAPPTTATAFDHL

[11] = IGROV1 ovarian cancer cell cytotoxicity, dose response, PAX8 inhibitor project, plate reader, dry powder samples (AID 743043); format: functional, cell-based; details: IGROV-1
[12] = molecular target: T5, DNA repair protein RAD52 homolog (Homo sapiens, UniProt P43351); format: functional, biochemical
T5 sequence (P43351 whole entry): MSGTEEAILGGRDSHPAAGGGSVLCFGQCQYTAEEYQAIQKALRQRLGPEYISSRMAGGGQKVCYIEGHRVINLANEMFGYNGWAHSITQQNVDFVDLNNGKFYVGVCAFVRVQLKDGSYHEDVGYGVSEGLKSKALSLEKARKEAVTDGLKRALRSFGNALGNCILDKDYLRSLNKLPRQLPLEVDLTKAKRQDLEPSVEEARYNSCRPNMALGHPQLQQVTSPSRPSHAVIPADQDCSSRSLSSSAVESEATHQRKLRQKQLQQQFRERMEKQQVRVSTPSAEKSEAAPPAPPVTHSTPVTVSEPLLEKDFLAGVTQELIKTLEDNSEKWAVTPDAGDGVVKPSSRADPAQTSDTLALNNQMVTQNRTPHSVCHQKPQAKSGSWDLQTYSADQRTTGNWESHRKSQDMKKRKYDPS

O=C1CC(c2ccccc2)=NN1c1nc(-c2ccccc2)cs1
EC50 [1]: 11.4 µM (active) | EC50 [2]: 13.2 µM (active) | AC50 [3]: 3.34 µM (active) | EC50 (H4): > 120 µM (not active)

CN(C)C1CCN(Cc2cc(COCc3ccccc3)c3cccnc3c2O)C1 (stereo unspecified)
IC50 (Nonstructural protein 1): 5.98 µM (active) | AC50 [4]: 9.99 µM (active) | AC50 (INS1): 2.78 µM (active)

Cc1c(C#N)c(NC(=O)CCl)n(Cc2ccccc2)c1C
AC50 [5]: 21.5 µM (active) | EC50 (Protein RecA): 3.39 µM (active) | AC50 [4]: 11.2 µM (active) | EC50 [6]: > 260 µM (inactive)

CCCn1c(N=C(S)Nc2ccccc2)nc2ccccc21
IC50 [7]: 112 µM (inactive)

Cc1cccc(-n2c(SCCC(=O)O)nnc2-c2cccs2)c1C
IC50 (Estrogen receptor beta): > 50 µM (not active)

Nc1cccc(Nc2nc(OC(C(F)(F)F)C(F)(F)F)nc(OC(C(F)(F)F)C(F)(F)F)n2)c1
IC50 [7]: > 122 µM (inactive)

CCOC(=O)C(=NC(C)CC)NNc1cccc(C(F)(F)F)c1 (stereo unspecified)
IC50 [7]: > 122 µM (inactive)

Cc1sc2nc(C3CC3)nc(SCC(=O)NCc3ccco3)c2c1C
AC50 [3]: 5.75 µM (active)

Cc1ccc(NC(S)=NNC(=O)c2nnn(-c3ccccc3)c2C)cc1
IC50 [7]: > 122 µM (inactive)

CC(NC(=O)c1ccc(Br)cc1)c1ccc2c(c1)CCCC2 (stereo unspecified)
AC50 [3]: 2.75 µM (active)

N#Cc1c(N/C=C2\C(=O)NC(=O)N(Cc3ccco3)C2=O)sc2c1CCCC2
IC50 (Estrogen receptor beta): > 50 µM (not active) | IC50 (Large T antigen): 32.6 µM (active)

CSC(=S)NN=C(C)c1cccc(C)n1
IC50 (Nonstructural protein 1): 1.1 µM (active) | AC50 [3]: 23.7 µM (active)

COc1ccc(S(=O)(=O)Nc2ccc3c(c2)C(=O)N([C@H](C)CO)C[C@H](C)[C@H](CN(C)C(=O)Nc2ccc(C(F)(F)F)cc2)OCCCC[C@@H](C)O3)cc1
AC50 [8]: 2.64 µM (active)

C[C@@H]1CN([C@H](C)CO)C(=O)c2cccc(NC(=O)NC3CCCCC3)c2O[C@@H]1CN(C)Cc1ccc(-c2ccccc2)cc1
AC50 [8]: 3.37 µM (active)

Cc1ccc(S(=O)(=O)Nc2ccc3c(c2)C(=O)N([C@H](C)CO)C[C@H](C)[C@H](CN(C)Cc2ccc(C(=O)Nc4ccccc4N)cc2)OCCCC[C@@H](C)O3)cc1
AC50 [8]: 2.44 µM (active)

C[C@H]1CN([C@@H](C)CO)C(=O)Cc2cc(NS(=O)(=O)c3ccc(F)cc3)ccc2O[C@@H]1CN(C)Cc1ccc(C(F)(F)F)cc1
AC50 [8]: 4.8 µM (active)

Cc1ccc(S(=O)(=O)Nc2cccc3c2O[C@@H](CN(C)Cc2ccc(-c4ccccc4)cc2)[C@@H](C)CN([C@H](C)CO)C3=O)cc1
AC50 [8]: 3.16 µM (active)

Cc1ccc(S(=O)(=O)Nc2cccc3c2O[C@@H](CN(C)Cc2ccc(C(=O)Nc4ccccc4N)cc2)[C@H](C)CN([C@@H](C)CO)C3=O)cc1
AC50 [8]: 3.2 µM (active)

CCCCNc1c(-c2ccc(SC3CCCCC3)c(OC)c2)nc2ccc(C)cn12
AC50 [9]: 3.1 µM (active) | CC50 [10]: > 40 µM (active)

Cc1ccccc1-c1ccc([C@@H]2[C@@H](CO)N3CCCCN(C(=O)NC4CCCC4)C[C@H]23)cc1
AC50 (Paired box protein Pax-8): 21.6 µM (active) | AC50 [11]: 52.2 µM (active)

C[C@@H]1CN([C@H](C)CO)C(=O)c2cc(NC(=O)Nc3ccc(F)cc3)ccc2O[C@@H](C)CCCCO[C@H]1CN(C)C(=O)C1CCCCC1
AC50 (Paired box protein Pax-8): 5.55 µM (active) | AC50 [11]: 50.3 µM (active)

COc1ccc2c(c1)c[n+](C)c1c3cc(OC)c(OC)cc3ccc21
IC50 [7]: > 122 µM (inactive) | AC50 [12]: 0.558 µM (active)
